Measured values reported in publication PMC7216583 (Parasites & Vectors, 2020).
Structures can show the parent of a compound that is named as a salt. Where two headings read alike, the source gives them in different places.

Experiments:
c-Kit [1] = tested on: c-Kit; set-up: method as in S-inhibitor catalog; details: vendor brief description; ref S-inhibitor catalog; cited from earlier work
Syk = tested on: Syk; set-up: method as in S-inhibitor; details: ref S-inhibitor; cited from earlier work
in vitro = details: human; for viability at 72 h: Host viability (%) mean
[2] = tested on: Toxoplasma gondii RH-2F tachyzoites; assay: microbe, parasite or virus in culture; details: 72 h
Aurora C [3] = tested on: Aurora C; set-up: method as in S-inhibitor catalog; details: vendor brief description; ref S-inhibitor catalog; cited from earlier work
Aurora B = tested on: Aurora B; set-up: method as in S-inhibitor catalog; details: vendor brief description; ref S-inhibitor catalog; cited from earlier work
HDAC = tested on: HDAC; set-up: method as in S-inhibitor catalog; details: vendor brief description; ref S-inhibitor catalog; cited from earlier work
CDK1 = tested on: CDK1; set-up: method as in S-inhibitor catalog; details: vendor brief description; ref S-inhibitor catalog; cited from earlier work
CDK9 = tested on: CDK9; set-up: method as in S-inhibitor catalog; details: vendor brief description; ref S-inhibitor catalog; cited from earlier work
mTOR = tested on: mTOR; set-up: method as in S-inhibitor; details: ref S-inhibitor; cited from earlier work
CYP17 = tested on: CYP17; set-up: method as in S-inhibitor catalog; details: vendor brief description; ref S-inhibitor catalog; cited from earlier work
VEGFR2 [4] = tested on: VEGFR2; set-up: method as in S-inhibitor catalog; details: vendor brief description; ref S-inhibitor catalog; cited from earlier work
HIV protease = target: HIV protease; set-up: method as in S-inhibitor; details: ref S-inhibitor; cited from earlier work
Aurora A = tested on: Aurora A; set-up: method as in S-inhibitor; details: ref S-inhibitor; cited from earlier work
VEGFR2 [5] = tested on: VEGFR2; set-up: method as in S-inhibitor; details: ref S-inhibitor; cited from earlier work
c-Met = tested on: c-Met; set-up: method as in S-inhibitor; details: ref S-inhibitor; cited from earlier work
CDK7 = tested on: CDK7; set-up: method as in S-inhibitor; details: ref S-inhibitor; cited from earlier work
Ret = tested on: Ret; set-up: method as in library vendor description; details: ref library vendor description; cited from earlier work
Aurora C [6] = tested on: Aurora C; set-up: method as in library vendor description; details: ref library vendor description; cited from earlier work
PDGFRβ = tested on: PDGFRβ; set-up: method as in library vendor description; details: ref library vendor description; cited from earlier work
VEGFR3 = tested on: VEGFR3; set-up: method as in library vendor description; details: ref library vendor description; cited from earlier work
PI3Kδ = tested on: PI3Kδ; set-up: method as in library vendor description; details: ref library vendor description; cited from earlier work
Abl = tested on: Abl; set-up: method as in S-inhibitor; details: ref S-inhibitor; read-out: IC50, Abl; cited from earlier work
HSP90 = tested on: HSP90; set-up: method as in S-inhibitor catalog; details: vendor brief description; ref S-inhibitor catalog; cited from earlier work
c-Kit [7] = tested on: c-Kit; set-up: method as in library vendor description; details: ref library vendor description; cited from earlier work
PDGFR = details: read-out: IC50 PDGFR; ref library vendor description; cited from earlier work
HDAC8 = tested on: HDAC8; set-up: method as in S-inhibitor; details: ref S-inhibitor; cited from earlier work
EGFR = tested on: EGFR; set-up: method as in library vendor description; details: ref library vendor description; cited from earlier work
FGFR1 = tested on: FGFR1; set-up: method as in library vendor description; details: ref library vendor description; cited from earlier work
VEGFR2 [8] = tested on: VEGFR2; set-up: method as in library vendor description; details: ref library vendor description; cited from earlier work
VEGFR1 = tested on: VEGFR1; set-up: method as in library vendor description; details: ref library vendor description; cited from earlier work
OX1 = target: OX1; set-up: method as in S-inhibitor; details: ref S-inhibitor, cited from earlier work
[9] = tested on: Toxoplasma gondii RH-2F tachyzoites; details: 5 μM, 72 h
p110β = tested on: p110β; set-up: method as in S-inhibitor; details: ref S-inhibitor; cited from earlier work
p110γ = tested on: p110γ; set-up: method as in S-inhibitor; details: ref S-inhibitor; cited from earlier work
[10] = read-out: Parasite inhibition (%) mean, preliminary screen of compound library, mean
[11] = read-out: Parasite inhibition (%) mean, preliminary screen, mean

## CN1CCN(c2ccc3nc(-c4c(N)c5c(F)cccc5[nH]c4=O)[nH]c3c2)CC1
c-Kit [1]
  IC50: 2 nM

## Cc1csc(-c2nnc(Nc3ccc(Oc4ncccc4-c4ccnc(N)n4)cc3)c3ccccc23)c1 [AMG 900]
In vitro
  viability at 72 h: 33.6%
[2]; [10]
  inhibition of growth at 5 µM: 85.9%
Aurora C [3]
  IC50: 1 nM
Aurora B
  IC50: 4 nM

## CC(C)[C@H](C(=O)Nc1ccc(C(=O)NO)cc1)c1ccccc1 [AR-42 (HDAC-42)]
[2]; [10]
  inhibition of growth at 5 µM: 61%
HDAC
  IC50: 30 nM

## Cc1ncc(-c2ccnc(Nc3ccc(S(C)(=O)=O)cc3)n2)n1C(C)C [AZD5438]
[2]; [10]
  inhibition of growth at 5 µM: 6.8%
CDK1
  IC50: 16 nM
CDK9
  IC50: 20 nM

## COc1ccc(-c2ccc3c(N4CCOC[C@@H]4C)nc(N4CCOC[C@@H]4C)nc3n2)cc1CO [AZD8055]
[2]; [11]
  inhibition of growth at 5 µM: 45.7%
mTOR
  IC50: 0.8 nM

## CC(=O)O[C@H]1CC[C@@]2(C)C(=CC[C@H]3[C@H]2CC[C@]2(C)C(c4cccnc4)=CC[C@@H]32)C1 [Abiraterone Acetate (CB7630)]
CYP17
  IC50: 72 nM
[2]; [10]
  inhibition of growth at 5 µM: 0.7%

## N#CC1(c2ccc(NC(=O)c3cccnc3NCc3ccncc3)cc2)CCCC1 [Apatinib (YN968D1)]
In vitro
  viability at 72 h: 63.8%
[2]; [10]
  inhibition of growth at 5 µM: 77.6%
VEGFR2 [4]
  IC50: 1 nM

## COC(=O)N[C@H](C(=O)N[C@@H](Cc1ccccc1)[C@@H](O)CN(Cc1ccc(-c2ccccn2)cc1)NC(=O)[C@@H](NC(=O)OC)C(C)(C)C)C(C)(C)C [Atazanavir sulfate]
In vitro
  viability: 90.7%
[2]; [11]
  inhibition of growth at 5 µM: 93.6%
HIV protease
  Ki: 2.66 nM

## CCN1CCN(C(=O)Cc2ccc(Nc3ncc(F)c(Nc4ccc(C(=O)Nc5ccccc5Cl)cc4)n3)cc2)CC1 [Aurora A Inhibitor I]
[2]; [11]
  inhibition of growth at 5 µM: 60.8%
Aurora A
  IC50: 3.4 nM

## Nc1nccc(Oc2ccc(NC(=O)c3c[nH]cc(-c4ccc(F)cc4)c3=O)cc2F)c1Cl [BMS 794833]
VEGFR2 [5]
  IC50: 15 nM
In vitro
  viability at 72 h: 70.6%
[2]; [11]
  inhibition of growth at 5 µM: 88.4%
c-Met
  IC50: 1.7 nM

## CC(C)c1cnn2c(NCc3ccccc3)cc(NCCCCCCN)nc12 [BS-181 HCl]
[2]; [11]
  inhibition of growth at 5 µM: 5.7%
CDK7
  IC50: 21 nM

## Cc1cc(CN2CCN(c3c(Br)cnc4[nH]c(-c5ccc(N6CCN(C)CC6)cc5)nc34)CC2)no1 [CCT137690]
In vitro
  viability at 72 h: 78.6%
[2]; [10]
  inhibition of growth at 5 µM: 86.1%
Aurora C [3]
  IC50: 19 nM
Aurora B
  IC50: 25 nM

## CO[C@@H](C(=O)N1Cc2n[nH]c(NC(=O)c3ccc(N4CCN(C)CC4)cc3)c2C1)c1ccccc1 [Danusertib (PHA-739358)]
Ret
  IC50: 31 nM
In vitro
  viability at 72 h: 78.8%
Aurora C [6]
  IC50: 61 nM
[2]; [11]
  inhibition of growth at 5 µM: 77.5%

## CN1CCN(c2ccc3nc(-c4c(N)c5c(F)cccc5[nH]c4=O)[nH]c3c2)CC1 [Dovitinib (TKI-258)]
[2]; read-out: Parasite inhibition (%) mean
  inhibition of growth at 5 µM: -12.9%
PDGFRβ
  IC50: 27 nM
VEGFR3
  IC50: […]

## CCn1cc(-c2ccnc3[nH]c(-c4cccc(CN(C)C)c4)cc23)c(-c2ccc(NC(=O)N(C)C)cc2)n1 [GSK1070916]
In vitro
  viability at 72 h: 67.7%
[2]; [10]
  inhibition of growth at 5 µM: 79.9%
Aurora C [3]
  IC50: 6.5 nM

## C[C@]12CC[C@H](O)CC1=CCC1C2CC[C@]2(C)C(n3cnc4ccccc43)=CCC12 (stereo partly shown) [Galeterone (TOK-001)]
CYP17
  IC50: 300 nM
[2]; [10]
  inhibition of growth at 5 µM: 0.4%

## Cc1ccccc1-n1c(Cn2cnc3c(N)ncnc32)nc2cccc(C)c2c1=O [IC-87114]
PI3Kδ
  IC50: […]
[2]; [11]
  inhibition of growth at 5 µM: 11.1%

## O=C(c1ccc(/C=C/c2n[nH]c3ccccc23)cc1)N1CCNCC1 [KW 2449]
In vitro
  viability at 72 h: 55.6%
[2]; [11]
  inhibition of growth at 5 µM: 70.2%
Abl
  IC50: 14 nM
Aurora A
  IC50: 48 nM

## CCc1c(O)cc(O)c(C(=O)c2ccc(OCCN3CCOCC3)c(OC)c2)c1CC(=O)N(CCOC)CCOC [KW-2478]
[2]; [10]
  inhibition of growth at 5 µM: 7.8%
HSP90
  IC50: 3.8 nM

## Cc1cccc(C)c1OCC(=O)N[C@@H](Cc1ccccc1)[C@@H](O)C[C@H](Cc1ccccc1)NC(=O)[C@H](C(C)C)N1CCCNC1=O [Lopinavir (ABT-378)]
[2]; [11]
  inhibition of growth at 5 µM: 0.9%
HIV protease
  Ki: 0.0013 nM

## CN(C)c1ccc(C(=O)NCCCCCCC(=O)NO)cc1 [M344]
[2]; [10]
  inhibition of growth at 5 µM: 44.6%
HDAC
  IC50: 100 nM

## CC1(C)CNc2cc(NC(=O)c3cccnc3NCc3ccncc3)ccc21 [Motesanib Diphosphate (AMG-706)]
[2]; [11]
  inhibition of growth at 5 µM: -36.6%
c-Kit [7]
  IC50: 8 nM
PDGFR
  IC50: 84 nM

## COc1ccc(Cn2ccc3ccc(C(=O)NO)cc32)cc1 [PCI-34051]
[2]; [11]
  inhibition of growth at 5 µM: 5.7%
HDAC8
  IC50: 10 nM

## COc1cc2ncnc(Nc3cccc(Br)c3)c2cc1OC [PD153035 HCl]
[2]; [11]
  inhibition of growth at 5 µM: -9.7%
EGFR
  IC50: […]

## CCN(CC)CCCCNc1ncc2cc(-c3cc(OC)cc(OC)c3)c(NC(=O)NC(C)(C)C)nc2n1 [PD173074]
In vitro
  viability at 72 h: 58.8%
[2]; [11]
  inhibition of growth at 5 µM: 76.8%
FGFR1
  IC50: […]
VEGFR2 [8]
  IC50: 100 to 200 nM

## Cc1ccc(Nc2nccc(N(C)c3ccc4c(C)n(C)nc4c3)n2)cc1S(N)(=O)=O [Pazopanib HCl]
[2]; [11]
  inhibition of growth at 5 µM: -2.6%
VEGFR1
  IC50: 10 nM
PDGFR
  IC50: 84 nM

## COc1cc(Nc2ncc(F)c(Nc3ccc4c(n3)NC(=O)C(C)(C)O4)n2)cc(OC)c1OC [R406 (free base)]
Syk
  IC50: 41 nM

## Cc1cc(NC(=O)Nc2ccc(N(C)C)cc2)c2cc(F)cc(F)c2n1 [SB-408124, reference compound]
OX1; membrane
  Ki: 27 nM
OX1; whole cell
  Ki: 57 nM
[2]; [11]
  inhibition of growth at 5 µM: -80.4%
[9]
  effect on T. gondii growth in the screen: no effect on T. gondii growth

## O=C(Nc1cccc(Cl)c1)Nc1ncc(CCNc2ncnc3ccsc23)s1 [SNS-314 Mesylate]
In vitro
  viability at 72 h: 32.9%
Aurora C [6]
  IC50: 3.4 nM
[2]; [11]
  inhibition of growth at 5 µM: 79.4%

## CCN(CC)CCNC(=O)c1c(C)[nH]c(/C=C2\C(=O)Nc3ccc(F)cc32)c1C [Sunitinib Malate (Sutent)]
[2]; [11]
  inhibition of growth at 5 µM: 7.5%
PDGFRβ
  IC50: […]

## COc1cc(Nc2nc3ccccc3nc2NS(=O)(=O)c2ccc(NC(=O)c3ccc(C)c(OC)c3)cc2)cc(OC)c1 [XL765 (SAR245409)]
[2]; [11]
  inhibition of growth at 5 µM: 46.6%
p110β
  IC50: 113 nM
mTOR
  IC50: 157 nM
p110γ
  IC50: 9 nM
